Measurements as given in the NIST ThermoML archive (doi:10.1016/j.jct.2010.02.010).

Details: for mass density: 101.33 kPa, Buoyancy - hydrostatic balance; for mass density / surface tension liquid-gas: Liquid; for surface tension liquid-gas: Maximal bubble pressure

CCCC[n+]1ccccc1.[O]=[Re](=[O])(=[O])[O-] [1-butylpyridinium perrhenate]
Details	mass density [kg/m3]	surface tension liquid-gas [mN/m]
293.15 K	1910.1	41.6
298.15 K	1902.5	41.2
303.15 K	1894.9	40.7
308.15 K	1886.9	40.5
313.15 K	1881.8	40
318.15 K	1877.6	39.7
323.15 K	1869.2	39.4
328.15 K	1862.7	39
333.15 K	1856.9	38.6
338.15 K	1853.2	38.3
343.15 K	1846.8	38.2

Details	Glass transition temperature [°C]
Glass, DTA	-66
